Counter-ions that a name gives are not always drawn.
molecular target: D(1A) dopamine receptor (Rattus norvegicus, UniProt P18901)
Sequence (P18901 whole entry): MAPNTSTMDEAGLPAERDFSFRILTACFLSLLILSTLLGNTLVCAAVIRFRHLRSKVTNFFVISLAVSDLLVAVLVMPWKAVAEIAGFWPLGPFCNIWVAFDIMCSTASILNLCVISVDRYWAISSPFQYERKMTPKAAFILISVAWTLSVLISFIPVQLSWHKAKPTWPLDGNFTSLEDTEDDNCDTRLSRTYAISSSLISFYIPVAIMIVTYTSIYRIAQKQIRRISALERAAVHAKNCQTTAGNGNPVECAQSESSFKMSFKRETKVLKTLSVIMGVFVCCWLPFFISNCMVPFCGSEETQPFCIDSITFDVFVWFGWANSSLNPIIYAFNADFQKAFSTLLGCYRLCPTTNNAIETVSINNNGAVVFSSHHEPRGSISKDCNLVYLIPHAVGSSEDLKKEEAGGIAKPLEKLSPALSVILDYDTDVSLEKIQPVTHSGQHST

SMILES	Ki
OCCN1CCN(CCCN2c3ccccc3Sc3ccc(Cl)cc32)CC1 [4-[3-(2-chlorophenothiazin-10-yl)propyl]-1-piperazineethanol]	44 nM
CN1CCN(CC/C=C2/c3ccccc3Sc3ccc(S(=O)(=O)N(C)C)cc32)CC1 [MLS000028463]	1520 nM
NC1CCc2cc(O)c(O)cc2C1 (stereo not given)	5120 nM
OCCN1CCN(CCCN2c3ccccc3Sc3ccc(C(F)(F)F)cc32)CC1 [2-[4-[3-[2-(trifluoromethyl)phenothiazin-10-yl]propyl]piperazin-1-yl]ethanol;hydrochloride]	4.5 nM
CC(CN1c2ccccc2Sc2ccccc21)N(C)C (stereo not drawn) [N,N,alpha-trimethyl-10H-phenothiazine-10-ethanamine]	1780 nM
c1ccc2c(c1)Nc1ccccc1S2 [phenothiazine]	> 10000 nM
O=c1[nH]c2ccccc2n1C1CCN(CCCC(c2ccc(F)cc2)c2ccc(F)cc2)CC1 [1-(1-(4,4-bis(4-fluorophenyl)butyl)piperidin-4-yl)-1H-benzo[d]imidazol-2(3H)-one]	1420 nM
O=c1[nH]c2ccccc2n1CCCN1CCC(n2c(=O)[nH]c3cc(Cl)ccc32)CC1	> 10000 nM
NCCc1c[nH]c2ccc(O)cc12 [[3H]-5-HT]	5000 nM
O=C(c1ccc(F)cc1)C1CCN(CCn2c(=O)[nH]c3ccccc3c2=O)CC1 [3-(2-{4-[(4-fluorophenyl)carbonyl]piperidin-1-yl}ethyl)-1,2,3,4-tetrahydroquinazoline-2,4-dione]	200 nM
